Data as given in patent US8691986B2, “Azetidine and piperidine compounds useful as PDE10 inhibitors” (Amgen Inc., priority 2012, dated 2014).

Columns and labels:
PDE10 = PDE10 (Rattus norvegicus (Rat), UniProt Q9QYJ6); test: PDE10 ex vivo receptor occupancy (RO) screening in rat striatum; conditions: oral; for receptor occupancy at 3 mg/kg: 3 mpk, 4 h (footnote C); for receptor occupancy at 10 mg/kg: 10 mpk
Procedure: The ex vivo screening protocol was approved by Amgen's Institutional Animal Care and Use Committee (IACUC) and in accordance with the National Institutes of Health Guide for Care and Use of Laboratory Animals in facilities accredited by the Association for the Assessment and Accreditation of Laboratory Animal Care (AALAC).
PDE10 inhibitors were dissolved in 2% Hydroxypropylmethylcellulose (HPMC), 1% Tween-80, pH 2.2 with methanesulfonic acid. Male Sprague Dawley® rats weighing 180-225 g (4 per group) were dosed orally with either vehicle or PDE10 inhibitors (3 mg/kg or 10 mg/kg) and then returned to their home cage to allow for absorption of the compounds. After one hour (with 10 mg/kg PDE10 inhibitor) or four hours (with 3 mg/kg or 10 mg/kg PDE10 inhibitor) rats were sacrificed by CO2 inhalation. Blood was obtained by heart puncture and plasma was frozen and stored at −80° C. for exposure analysis. Brains were removed and immediately frozen in chilled methylbutane, and stored at −80° C. until cutting. Three coronal brain slices per brain containing the striatum were cut at […] using a cryostat and placed onto microscope slides, air-dried and stored at −20° C. For radioligand binding experiments, slides were thawed at room temperature and then incubated with 1 nM a tritium labeled tracer compound (insert citation) in binding buffer (150 mM Phosphate-buffered saline containing 2 mM MgCl2 and 100 mM DTT, pH 7.4) for 1 minute at 4° C. To assess non-specific binding, slides containing adjacent brain sections were incubated in the same solution with addition of […] of an unlabelled, structurally unrelated PDE10 antagonist. Afterwards slides were washed 3 times in ice-cold binding buffer, dipped into distilled water to remove buffer salts, and dried under a stream of cold air. Emission of beta particles from the sections was counted for 8 hours in a Beta Imager 2000 (Biospace, Paris, France) and digitized and analyzed using M3 Vision software (Biospace, Paris, France). Total binding radioactivity in the striatum was measured as cpm/mm^2 in hand-drawn regions of interest and averaged across the three sections per brain. Non-specific binding was subtracted to obtain specific binding values and percent occupancy was calculated by setting vehicle specific binding as 0% occupancy.

human PDE2A1 = human PDE2A1 (Homo sapiens (Human), UniProt O00408); test: PDE2A inhibition, PDE IMAP TR-FRET assay; format: biochemical; conditions: FAM-cAMP substrate
Procedure: Purified human PDE2A1 and PDE10A2 enzymes were obtained from BPS Bioscience (San Diego, Calif.). IMAP™ TR-FRET progressive binding system, FAM-cAMP substrate were from Molecular Devices (Sunnyvale, Calif.).
The PDE IMAP assay was conducted in a 384-well black Greiner polypropylene plate (Sigma, St. Louis, Mo.). PDE inhibitors were serial diluted in 100% DMSO and dispensed into assay plate at […] per well using Echo® Liquid Handling System from LABCYTE. Ten μL of PDE enzyme in IMAP reaction buffer (10 mM Tris-HCl, pH 7.2, 10 mM MgCl2, 0.05% NaN3, and 0.01% Tween-20) was added into the assay wells. The PDE enzyme concentration used was based on each lot of enzyme activity, to ensure enzyme reaction falls in a linear range under assay condition. 1.4 nM of PDE2 or […] PDE10 were used in the assay system. Enzyme was pre-incubated with inhibitors for 60 minutes at room temperature before addition of 10 uL of substrate addition, which results in 100 nM of FAM-cAMP in the reaction. Enzyme reaction was allowed to proceed at room temperature for 90 min, and the reaction is stopped by 55 μl addition of binding reagent according to manufacturer's recommendation. The mixture is further incubated at room temperature for additional 4 hours, and signal was read on an Envision multimode reader (PerkinElmer). Fluorescence signals were measured at 520 nm and 485 nm. The signal ratio at 520/485 nm corresponded to the generation of reaction product of AMP, and it was used in all data analysis. Values from DMSO-treated wells were normalized to POC=100, and no-enzyme wells were normalized to POC=0. IC50 values were determined by using the Genedata Screener V9.0.1. The curve fitting algorithm used for dose response data analysis in Genedata Screener is a custom implementation of a robust curve-fitting algorithm called ROUT (Robust regression with outlier detection) and uses a four-parameter logistical (4 PL) Hill model.

human MDR1 (P-gp) = human MDR1 (P-gp) (Homo sapiens (Human), UniProt P08183); test: Transcellular transport in human MDR1-transfected LLC-PK1 cells; format: in vitro ADME; conditions: pH 7.4, MDR1-LLC-PK1, 5 μM test compound
Procedure: Digoxin and mannitol were purchased from Sigma-Aldrich (St. Louis, Mo.). 3H-digoxin and 14C-mannitol were purchased from PerkinElmer Life and Analytical Sciences (Boston, Mass.). Transport buffer was prepared using Hank's balanced salt solution (HBSS) supplemented with 10 mM Hepes, pH 7.4 and 0.1% BSA (HHBSS, Invitrogen, Grand Island, N.Y., BSA, Bovine Serum Albumin, Calbiochem, La Jolla, Calif.).
Cultures were incubated at 37° C. in a humidified (95% relative humidity) atmosphere of 5% CO2/95% air. The parental cell line LLC-PK1 (porcine renal epithelial cells) was purchased from American Type Culture Collection (ATCC, Manassas, Va.). Human MDR1 and Sprague-Dawley rat mdra1 transfectants in LLC-PK1 were generated at Amgen (Thousand Oaks, Calif.). Cells were cultured in Medium 199 supplemented with 2 mM L-glutamine, penicillin (50 units/mL), streptomycin (50 μg/mL), and 10% (v/v) fetal bovine serum (all from Invitrogen) (Schinkel et al, 1995).
LLC-PK1, MDR1-LLC-PK1, and mdr1a-LLC-PK1 cell monolayers were seeded onto porous (1.0 μm) polycarbonate 96-well transwell membrane filters (Millipore Corp., Billerica, Mass.) and cultured for six days with one media replacement on day four prior to transwell experiments. Cells were washed once with warmed HHBS prior to transwell experiments. Experiments were initiated by replacing the buffer in each compartment with 0.15 mL of HBSS containing 0.1% BSA with and without 5 μM of test compound in triplicate wells. The plates were incubated for two hours at 37° C. in an EVO incubator with shaking. Aliquots (100 μl) from both donor and receiver chambers were transferred to 96 well plates or scintillation vials. Protein was precipitated by addition of 200 μL acetonitrile containing 0.1% formic acid and prazosin (25 ng/mL) as internal standard. After vortexing and centrifugation at 3000 rpm for 20 min, 150 μL supernatant samples were transferred to a new plate containing 50 μL water for LC-MS/MS analysis. Transcellular transport of 3H-Digoxin was used as a positive control for Pgp. Paracellular permeability of 14C-Mannitol was used to measure the integrity of the monolayer. Sample radioactivity was measured using a liquid scintillation counter (Packard Tri-Carb 2910TR, PerkinElmer).
The apparent permeability coefficient (Papp) of all tested agents was estimated from the slope of cumulative amount (dQ) of the agent vs. time (dt), and the equation: Papp=(dQ/dt)/(A*C0)
where dQ/dt is the penetration rate of the agent […], A is the surface area of the cell layer on the Transwell (0.11 cm2), and CO is the initial concentration of the test compound (μM).

PDE10, sequence (Q9QYJ6 whole entry): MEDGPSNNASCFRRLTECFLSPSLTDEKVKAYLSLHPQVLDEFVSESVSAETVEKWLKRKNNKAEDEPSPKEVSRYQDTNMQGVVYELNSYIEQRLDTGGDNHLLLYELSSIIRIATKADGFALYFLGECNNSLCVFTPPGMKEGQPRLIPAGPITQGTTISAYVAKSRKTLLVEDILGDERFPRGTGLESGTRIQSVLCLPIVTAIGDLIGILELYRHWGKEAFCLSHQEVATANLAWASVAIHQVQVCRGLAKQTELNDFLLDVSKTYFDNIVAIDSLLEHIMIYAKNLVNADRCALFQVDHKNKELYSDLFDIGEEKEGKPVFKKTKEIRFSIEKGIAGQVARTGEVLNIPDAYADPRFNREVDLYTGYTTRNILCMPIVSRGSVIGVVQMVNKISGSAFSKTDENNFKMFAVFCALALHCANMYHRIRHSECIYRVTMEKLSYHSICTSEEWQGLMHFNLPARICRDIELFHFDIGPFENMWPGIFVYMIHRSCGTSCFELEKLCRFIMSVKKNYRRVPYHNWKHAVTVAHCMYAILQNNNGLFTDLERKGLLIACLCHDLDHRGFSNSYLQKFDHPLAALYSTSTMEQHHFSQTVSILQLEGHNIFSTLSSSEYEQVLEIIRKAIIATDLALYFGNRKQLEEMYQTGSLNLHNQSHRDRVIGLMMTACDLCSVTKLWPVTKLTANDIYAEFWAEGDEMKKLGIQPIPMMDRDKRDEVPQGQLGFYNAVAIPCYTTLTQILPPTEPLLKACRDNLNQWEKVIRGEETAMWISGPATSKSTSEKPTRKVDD
human MDR1 (P-gp), sequence (P08183 whole entry): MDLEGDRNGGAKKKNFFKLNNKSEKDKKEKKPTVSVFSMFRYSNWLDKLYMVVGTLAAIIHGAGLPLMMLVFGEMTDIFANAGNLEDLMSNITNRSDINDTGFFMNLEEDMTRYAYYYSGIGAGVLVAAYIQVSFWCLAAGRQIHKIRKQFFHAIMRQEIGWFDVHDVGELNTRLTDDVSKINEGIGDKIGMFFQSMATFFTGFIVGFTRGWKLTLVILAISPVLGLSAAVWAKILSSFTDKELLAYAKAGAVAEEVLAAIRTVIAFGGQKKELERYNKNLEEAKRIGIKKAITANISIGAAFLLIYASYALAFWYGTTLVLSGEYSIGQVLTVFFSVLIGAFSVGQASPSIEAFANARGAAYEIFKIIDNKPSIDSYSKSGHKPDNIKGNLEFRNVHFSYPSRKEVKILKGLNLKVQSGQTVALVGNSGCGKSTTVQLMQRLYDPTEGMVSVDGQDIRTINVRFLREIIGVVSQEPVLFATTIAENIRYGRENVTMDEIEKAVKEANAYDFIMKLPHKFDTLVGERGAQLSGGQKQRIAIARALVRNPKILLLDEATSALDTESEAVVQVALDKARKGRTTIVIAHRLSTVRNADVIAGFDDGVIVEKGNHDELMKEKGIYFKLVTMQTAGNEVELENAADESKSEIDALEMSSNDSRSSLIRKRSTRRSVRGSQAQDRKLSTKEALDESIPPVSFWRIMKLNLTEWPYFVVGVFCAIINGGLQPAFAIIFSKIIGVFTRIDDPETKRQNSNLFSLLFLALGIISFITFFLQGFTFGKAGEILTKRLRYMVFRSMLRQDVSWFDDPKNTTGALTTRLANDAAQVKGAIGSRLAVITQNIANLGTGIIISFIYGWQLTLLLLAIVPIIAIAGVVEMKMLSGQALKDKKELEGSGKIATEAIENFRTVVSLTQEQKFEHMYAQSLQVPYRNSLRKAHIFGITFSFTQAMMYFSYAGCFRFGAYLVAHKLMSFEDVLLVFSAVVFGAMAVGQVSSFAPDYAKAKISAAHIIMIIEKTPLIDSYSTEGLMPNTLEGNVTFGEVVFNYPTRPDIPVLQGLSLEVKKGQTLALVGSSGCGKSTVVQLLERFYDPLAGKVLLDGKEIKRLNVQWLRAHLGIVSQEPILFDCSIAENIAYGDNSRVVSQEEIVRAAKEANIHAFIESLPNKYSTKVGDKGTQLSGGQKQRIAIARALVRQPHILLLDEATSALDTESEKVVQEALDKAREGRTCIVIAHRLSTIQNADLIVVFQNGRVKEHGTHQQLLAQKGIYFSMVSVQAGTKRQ
human PDE2A1, sequence (O00408 other isoform, or with tags, fused parts or gaps): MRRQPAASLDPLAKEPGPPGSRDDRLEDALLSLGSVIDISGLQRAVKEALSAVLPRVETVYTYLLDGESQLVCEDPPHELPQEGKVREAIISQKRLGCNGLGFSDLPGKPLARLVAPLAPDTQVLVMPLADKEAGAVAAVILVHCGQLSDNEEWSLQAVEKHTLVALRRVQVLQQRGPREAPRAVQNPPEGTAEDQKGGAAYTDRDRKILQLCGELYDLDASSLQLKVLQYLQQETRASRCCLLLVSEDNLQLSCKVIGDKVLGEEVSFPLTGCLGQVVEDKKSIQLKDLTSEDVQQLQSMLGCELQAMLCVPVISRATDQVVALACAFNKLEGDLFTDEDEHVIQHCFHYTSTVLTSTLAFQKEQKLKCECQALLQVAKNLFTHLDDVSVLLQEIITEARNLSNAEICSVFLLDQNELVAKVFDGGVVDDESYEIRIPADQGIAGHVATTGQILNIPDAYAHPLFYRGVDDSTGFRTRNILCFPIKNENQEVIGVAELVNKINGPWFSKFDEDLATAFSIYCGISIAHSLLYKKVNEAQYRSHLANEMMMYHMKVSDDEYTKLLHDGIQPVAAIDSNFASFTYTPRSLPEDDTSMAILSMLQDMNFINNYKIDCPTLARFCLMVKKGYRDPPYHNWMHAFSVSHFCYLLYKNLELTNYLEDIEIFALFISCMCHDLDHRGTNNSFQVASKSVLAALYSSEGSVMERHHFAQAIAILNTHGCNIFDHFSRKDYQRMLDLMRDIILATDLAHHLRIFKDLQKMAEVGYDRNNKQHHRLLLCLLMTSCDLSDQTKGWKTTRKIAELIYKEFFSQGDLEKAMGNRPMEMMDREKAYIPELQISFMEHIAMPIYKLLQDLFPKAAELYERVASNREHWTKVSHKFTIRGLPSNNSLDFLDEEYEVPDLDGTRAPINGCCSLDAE

Structure (SMILES)	receptor occupancy at 3 mg/kg (PDE10)	receptor occupancy at 10 mg/kg (PDE10; 4 h (footnote B))	IC50 (human PDE2A1)	efflux ratio at 2 h, 5 μM (human MDR1 (P-gp))	receptor occupancy at 10 mg/kg (PDE10; 1 h (footnote A))
CNC(=O)c1ccc(-c2nccnc2C2CN(c3ccc4ccc(F)cc4n3)C2)cc1F [Example 8, 2-Fluoro-4-(3-(1-(7-Fluoroquinolin-2-Yl)Azetidin-3-Yl) Pyrazin-2-Yl)-N-Methylbenzamide]	83.5%	–	10 µM	2.8	134%
CNC(=O)c1ccc(-c2nccnc2C2CCN(c3ccc4cccc(F)c4n3)CC2)cc1F [Example 5, 2-Fluoro-4-(3-(1-(8-Fluoroquinolin-2-Yl)Piperidin-4-Yl)Pyrazin-2-Yl)-N-Methylbenzamide]	68.3%	–	10 µM	2.5	–
CNC(=O)c1ccc(-c2nccnc2C2CN(c3ncc4ccc(Cl)cc4n3)C2)cc1F [Example 10, 4-(3-(1-(7-Chloroquinazolin-2-Yl)Azetidin-3-Yl)Pyrazin-2-Yl)-2-Fluoro-N-Methylbenzamide]	108%	–	7.38 µM	1.8	101%
CNC(=O)c1ccc(-c2nccnc2C2CN(c3ccc4cc(F)ccc4n3)C2)cc1F [Example 13, 2-Fluoro-4-(3-(1-(6-Fluoroquinolin-2-Yl)Azetidin-3-Yl) Pyrazin-2-yl)-N-Methylbenzamide]	77%	–	10 µM	3.02	–
CNC(=O)c1ccc(-c2nccnc2C2CCN(c3ccc4cc(F)ccc4n3)CC2)cc1F [Example 4, 2-Fluoro-4-(3-(1-(6-Fluoroquinolin-2-Yl)Piperidin-4-Yl)Pyrazin-2-Yl)-N-Methylbenzamide]	93.3%	–	10 µM	3.4	–
CNC(=O)c1ccc(-c2nccnc2C2CCN(c3ccc4ccc(F)cc4n3)CC2)cc1F [Example 2, 2-Fluoro-4-(3-(1-(7-Fluoroquinolin-2-Yl)Piperidin-4-Yl) Pyrazin-2-Yl)-N-Methylbenzamide]	–	112%	10 µM	2.4	–
CNC(=O)c1ccc(-c2nccnc2C2CN(c3ncc4ccccc4n3)C2)cc1F [Example 6, 2-Fluoro-N-Methyl-4-(3-(1-(Quinazolin-2-Yl)Azetidin-3-Yl)Pyrazin-2-Yl)Benzamide]	62.6%	–	10 µM	1.8	85.4%
CNC(=O)c1ccc(-c2nccnc2C2CN(c3ncc4ccc(F)cc4n3)C2)cc1F [Example 9, 2-Fluoro-4-(3-(1-(7-Fluoroquinazolin-2-Yl)Azetidin-3-Yl)Pyrazin-2-Yl)-N-Methylbenzamide]	61.8%	87.1%	10 µM	1.8	123%

Continued by falling IC50 (human PDE2A1), values first:

receptor occupancy at 3 mg/kg (PDE10)	receptor occupancy at 10 mg/kg (PDE10; 4 h (footnote B))	IC50 (human PDE2A1)	efflux ratio at 2 h, 5 μM (human MDR1 (P-gp))	receptor occupancy at 10 mg/kg (PDE10; 1 h (footnote A))	Structure (SMILES)
67.5%	80%	10 µM	1.75	–	CNC(=O)c1ccc(-c2nccnc2C2CN(c3ncc4cc(F)ccc4n3)C2)cc1F [Example 11, 2-Fluoro-4-(3-(1-(6-Fluoroquinazolin-2-Yl)Azetidin-3-Yl)Pyrazin-2-Yl)-N-Methylbenzamide]
91.4%	–	10 µM	1.85	–	CNC(=O)c1ccc(-c2nccnc2C2CN(c3ncc4cc(F)c(Cl)cc4n3)C2)cc1F [Example 12, 4-(3-(1-(7-Chloro-6-Fluoroquinazolin-2-Yl)Azetidin-3-Yl)Pyrazin-2-Yl)-2-Fluoro-N-Methylbenzamide]
97.4%	–	10 µM	2	–	CNC(=O)c1ccc(-c2nccnc2C2CCN(c3ccc4ccccc4n3)CC2)cc1F [Example 3, 2-Fluoro-N-Methyl-4-(3-(1-(Quinolin-2-Yl)Piperidin-4-Yl)Pyrazin-2-Yl)Benzamide]
58.8%	79%	10 µM	2.9	–	CNC(=O)c1ccc(-c2nccnc2C2CCN(c3ccc4ccc(Cl)cc4n3)CC2)cc1F [Example 1, 4-(3-(1-(7-Chloroquinolin-2-Yl)Piperidin-4-Yl)Pyrazin-2-Yl)-2-Fluoro-N-Methylbenzamide]
78.5%	–	10 µM	1.25	–	CNC(=O)c1ccc(-c2nccnc2C2CN(c3ccc4ncc(Cl)cc4n3)C2)cc1F [Example 14, 4-(3-(1-(7-Chloro-1,5-Naphthyridin-2-Yl)Azetidin-3-Yl)Pyrazin-2-Yl)-2-Fluoro-N-Methylbenzamide]
110%	–	10 µM	2.95	93.2%	CNC(=O)c1ccc(-c2nccnc2C2CN(c3ccc4ccccc4n3)C2)cc1F [Example 7, 2-Fluoro-N-Methyl-4-(3-(1-(Quinolin-2-Yl)Azetidin-3-Yl) Pyrazin-2-Yl)Benzamide]
